The test system of data set [1] is Dengue 2, New Guinea strain (NGC). Description: DENV-2 moDC EC50 (qPCR of viral RNA in infected moDCs). The class given is cell-based, New Guinea strain (NGC); human moDCs. To be noted: Dengue virus, human moDCs infected with Dengue 2 NGC, MOI=0.1, 48 hours. How it is done: Example 82. DENV-2 moDC EC50
Human monocyte-derived dendritic cells (moDCs) were derived from CD14+ monocytes (AllCells) cultured in Human Mo-DC Differentiation medium containing GM-CSF and IL-4 (Miltenyi Biotec). On day 7, moDCs were harvested by mechanical disruption, washed and suspended in serum-free RPMI. moDCs were infected with Vero-derived Dengue 2, New Guinea strain (NGC) at a MOI=0.1 for two hours in serum-free RPMI with gentle agitation at 37° C. Cells were washed and resuspended in 10% serum-containing RPMI (Gibco, supplemented with sodium pyruvate, NEAA, Penicillin-Streptomycin). […] were plated in triplicate in 96-well plates with compounds dispensed at graded doses (Hewlett-Packard D300 Digital Dispenser). All wells were normalized to 0.25% DMSO. At 48 hours, cells were washed with 1×PBS and all supernatants removed. Total RNA was extracted using RNEasy 96 plates (Qiagen) and used to generate first-strand cDNA using XLT cDNA 5× Supermix (QuantaBio). cDNA was used as a template in a Taqman qPCR duplex reaction specific to DENV2 viral and GAPDH gene expression. EC50 values were determined using Prism Graphpad software, with normalization to a positive control and no compound negative control wells.

Data set [2] is described as follows: Huh-7 CC50 (CellTiter Glo viability). In kind it is cell-based, Human. The following applies: human, Huh7 hepatocarcinoma cells. How it is done:
Human hepatocarcinoma 7 (Huh7) cells were maintained in 10% FCS-containing complete DMEM. On day of assay, cells were trypsinized with 0.1% Trypsin-EDTA, washed and cultured in triplicate at 1-2×10^4 cells/well in 96-well plates with compounds dispensed at graded doses (Hewlett-Packard D300 Digital Dispenser). All wells were normalized to 0.25% DMSO. After 48 hours, CellTiter Glo (Promega) was added and incubated for 10 minutes at room temp before reading on a luminometer. % viability curves were calculated against no compound and no cell control wells. CC50 values were determined using Prism Graphpad software.

The nature of data set [3]: moDC CC50 (CellTiter Glo viability). The class given is cell-based, Human. To be noted: human, uninfected moDCs. As for the experimental part: Human monocyte-derived dendritic cells (moDCs) were derived from CD14+ monocytes (AllCells) cultured in Human Mo-DC Differentiation medium containing GM-CSF and IL-4 (Miltenyi Biotec). On day 7, moDCs were harvested by mechanical disruption, washed and cultured in triplicate at […] cells/well in 96-well plates with compounds dispensed at graded doses (Hewlett-Packard D300 Digital Dispenser). All wells were normalized to 0.25% DMSO. After 48 hours, CellTiter Glo (Promega) was added and incubated for 10 minutes at room temp before reading on a luminometer. % viability curves were calculated against no compound and no cell control wells. CC50 values were determined using Prism Graphpad software.
(In general: In ATP-based viability assays light output follows the ATP content of the culture.)

Data set [4] in a line: HEp-2 CC50 (cytotoxicity in uninfected HEp-2 cells). The class given is cell-based. The following applies: human, CellTiter Glo. As for the experimental part:
Instead, an uninfected cell mixture at the same density is added at 20 uL/well to plates containing prediluted compounds, also at 100 nL/sample. Assay plates are then incubated for 4 days followed by a cell viability test using the same CellTiter Glo reagent addition and measurement of luminescent readouts. Untreated cell and cells treated at 2 μM puromycin (Sigma, St. Louis, MO) serve as 100% and 0% cell viability control, respectively.

Data set [5] deals with Dengue serotype 2 New Guinea C (NGC) strain. Kind of data set: DENV-2 Huh-7 EC50 (qPCR of viral RNA in infected Huh7 cells). In kind it is cell-based. To be noted: Dengue virus, DENV2, Huh-7, Huh7 cells infected with Dengue serotype 2 NGC, MOI=0.1, 48 hours. As for the experimental part: Huh7 (Human hepatocarcinoma 7) cells were maintained in 10% FCS-containing DMEM complete media. On the day of the assay, cells were trypsinized (0.1% Trypsin-EDTA), washed and infected for 2 hours in serum-free DMEM with Dengue serotype 2 New Guinea C (NGC) strain at MOI=0.1 with gentle agitation at 37° C. After 2 hours, cells were washed with serum-free media and suspended in 10% FCS-containing DMEM (Gibco, supplemented with sodium pyruvate, NEAA, Penicillin-Streptomycin). 10^5 cells were plated in triplicate in 96-well plates with compounds dispensed at graded doses (Hewlett-Packard D300 Digital Dispenser). All wells were normalized to 0.25% DMSO. At 48 hours, cells were washed with 1× PBS and all supernatants removed. Total RNA was extracted using RNEasy 96 plates (Qiagen) and used to generate first-strand cDNA using XLT cDNA 5× Supermix (QuantaBio). cDNA was used as a template in a Taqman qPCR duplex reaction specific to DENV2 viral and GAPDH gene expression. EC50 values were determined using Prism Graphpad software, with normalization to a positive control and no compound negative control wells.
For orientation: Real-time PCR tracks product formation cycle by cycle.

For a further data set, the system named is RSV strain A2. Kind of data set: RSV HEp-2 EC50 (infectious cytopathic cell protection assay). The class given is cell-based, RSV strain A2; HEp-2 cells. To be noted: human respiratory syncytial virus, HEp-2, 96 h, read-out: RSV Hep-2 EC50. As for the experimental part:
Example 86. RSV HEp-2 EC50
Antiviral activity against RSV is determined using an infectious cytopathic cell protection assay in HEp-2 cells. In this assay, compounds inhibiting viral infection and/or replication produce a cytoprotective effect against the virus-induced cell killing that can be quantified using a cell viability reagent. The techniques used here are novel adaptations of methods described in published literature (Chapman et al., Antimicrob Agents Chemother. 2007, 51(9):3346-53.)
HEp-2 cells are obtained from ATCC (Manassas, VI) and maintained in MEM media supplemented with 10% fetal bovine serum and penicillin/streptomycin. Cells are passaged twice a week and kept at subconfluent stage. Commercial stock of RSV strain A2 (Advanced Biotechnologies, Columbia, MD) is titered before compound testing to determine the appropriate dilution of the virus stock that generates desirable cytopathic effect in HEp-2 cells.
For antiviral tests, HEp-2 cells are grown in large cell culture flasks to near confluency but not fully so. The compounds to be tested are prediluted in DMSO in 384-well compound dilution plates, either in an 8 or 40 sample per plate standardized dose response format. 3-fold serial dilution increments of each test compound are prepared in the plates and test samples are transferred via acoustic transfer apparatus (Echo, Labcyte) at 100 nL per well into cell culture assay 384-well plates. Each compound dilution is transferred in single or quadruplicate samples into dry assay plates, which are stored until assay is ready to go. The positive and negative controls are laid out in opposite on ends of the plate in vertical blocks (1 column).
Subsequently, an infectious mixture is prepared using an appropriate dilution of virus stock previously determined by titration with cells at a density of 50,000/mL and 20 uL/well is added to test plates w/compounds via automation (uFlow, Biotek). Each plate includes negative and positive controls (16 replicates each) to create 0% and 100% virus inhibition standards, respectively. Following the infection with RSV, testing plates are incubated for 4 days in a 37° C. cell culture incubator. After the incubation, a cell viability reagent, Cell TiterGlo (Promega, Madison, WI) is added to the assay plates, which are incubated briefly, and a luminescent readout is measured (Envision, Perkin Elmer) in all the assay plates. The RSV-induced cytopathic effect, percentage inhibition, is determined from the levels of remaining cell viability. […] Various potent anti-RSV tool compounds are used as positive controls for antiviral activity.
(Damage to the host cells serves as the signal in cytopathic effect assays.)

With `CC(C)C(=O)O[C@H]1[C@H](c2ccc3c(N)ncnn23)O[C@](CF)(COP(=O)(N[C@@H](C)C(=O)OC2CCCCC2)Oc2ccccc2)[C@H]1OC(=O)C(C)C` (single isomer, unassigned) [Example 63], the EC50 in data set [1] was determined as 321 nM; in data set [5], 602 nM; in the data set with RSV strain A2, 2420 nM. For the same molecule, the results for the 50% cytotoxic concentration (CC50) at 48 h in data set [2] and in data set [3] were 10.7 µM and 5.6 µM, respectively. In data set [4], this molecule came in with a CC50 at 4 days of 19.1 µM.

Take `C[C@H](NP(=O)(OC[C@@]1(CF)O[C@@H](c2ccc3c(N)ncnn23)[C@H](O)[C@@H]1O)Oc1ccccc1)C(=O)OCC(C)(C)C` (stereo partly drawn) [Example 3, neopentyl ((((2R,3S,4R,5S)-5-(4-aminopyrrolo[2,1-f][1,2,4]triazin-7-yl)-2-(fluoromethyl)-3,4-dihydroxytetrahydrofuran-2-yl)methoxy)(phenoxy)phosphoryl)-L-alaninate]: the EC50 in data set [1] amounted to 156 nM; in data set [5], 92 nM; with RSV strain A2, 77 nM. Besides, the CC50 at 48 h in data set [2] was more than 25 µM; in data set [3], more than 11.1 µM. For the same molecule, in data set [4], the CC50 at 4 days was more than 100 µM.

Consider `C[C@H](NP(=O)(OC[C@@]1(CF)O[C@@H](c2ccc3c(N)ncnn23)[C@H](O)[C@@H]1O)Oc1ccccc1)C(=O)OCCC(C)(C)C` (stereo partly drawn) [Example 4, 3,3-dimethylbutyl ((((2R,3S,4R,5S)-5-(4-aminopyrrolo[2,1-f][1,2,4]triazin-7-yl)-2-(fluoromethyl)-3,4-dihydroxytetrahydrofuran-2-yl)methoxy)(phenoxy)phosphoryl)-L-alaninate], for which the EC50 in data set [1] was determined as 58 nM; in data set [5] it was 132 nM; in the data set on RSV strain A2, 29 nM. For the same molecule, the CC50 at 48 h was determined as 17.8 µM in data set [2] and 4.78 µM in data set [3]. The molecule also came in with a CC50 at 4 days in data set [4] of more than 100 µM.

As for `CCC(C)(C)COC(=O)[C@H](C)NP(=O)(OC[C@@]1(CF)O[C@@H](c2ccc3c(N)ncnn23)[C@H](O)[C@@H]1O)Oc1ccccc1` (stereo partly drawn) [Example 7, 2,2-dimethylbutyl ((((2R,3S,4R,5S)-5-(4-aminopyrrolo[2,1-f][1,2,4]triazin-7-yl)-2-(fluoromethyl)-3,4-dihydroxytetrahydrofuran-2-yl)methoxy)(phenoxy)phosphoryl)-L-alaninate], the EC50 worked out at 40 nM in data set [1], 159 nM in data set [5] and 24 nM with RSV strain A2. For the same molecule, the results for the CC50 at 48 h in data set [2] and in data set [3] were more than 25 µM and 6.69 µM, respectively. Also, the CC50 at 4 days in data set [4] is more than 100 µM.

In the case of `CCOC(=O)[C@H](C)NP(=O)(OC[C@@]1(CF)O[C@@H](c2ccc3c(N)ncnn23)[C@H](O)[C@@H]1O)Oc1ccccc1` (stereo partly drawn) [Example 13, ethyl ((((2R,3S,4R,5S)-5-(4-aminopyrrolo[2,1-f][1,2,4]triazin-7-yl)-2-(fluoromethyl)-3,4-dihydroxytetrahydrofuran-2-yl)methoxy)(phenoxy)phosphoryl)-L-alaninate], the concentration giving a half-maximal response (EC50) in data set [1] was found to be 274 nM; in data set [5], 487 nM; in the data set on RSV strain A2 it was 844 nM. Further, the CC50 at 48 h in data set [2] is more than 25 µM; in data set [3], more than 10.2 µM. The molecule further yielded a CC50 at 4 days in data set [4] of more than 89.4 µM.

Consider `C[C@H](NP(=O)(OC[C@@]1(CF)O[C@@H](c2ccc3c(N)ncnn23)[C@H](O)[C@@H]1O)Oc1ccccc1)C(=O)OC1CCCCC1` (stereo partly drawn) [Example 14, cyclohexyl ((((2R,3S,4R,5S)-5-(4-aminopyrrolo[2,1-f][1,2,4]triazin-7-yl)-2-(fluoromethyl)-3,4-dihydroxytetrahydrofuran-2-yl)methoxy)(phenoxy)phosphoryl)-L-alaninate], for which the EC50 is 165 nM in data set [1], 205 nM in data set [5] and 187 nM with RSV strain A2. Also, the CC50 at 48 h in data set [2] is more than 25 µM; in data set [3] it was more than 7.76 µM. This molecule yielded a CC50 at 4 days in data set [4] of more than 100 µM.

Consider `CCC(=O)O[C@H]1[C@H](c2ccc3c(N)ncnn23)O[C@](CF)(CO[P@@](=O)(N[C@@H](C)C(=O)OC(C)C)Oc2ccccc2)[C@H]1OC(=O)CC` [Example 22, (2R,3S,4S,5S)-5-(4-aminopyrrolo[2,1-f][1,2,4]triazin-7-yl)-2-(fluoromethyl)-2-((((S)-(((S)-1-isopropoxy-1-oxopropan-2-yl)amino)(phenoxy)phosphoryl)oxy)methyl) tetrahydrofuran-3,4-diyl dipropionate], for which the results for the EC50 (in data set [1]; in data set [5]; in the data set with RSV strain A2) were 735 nM, 1030 nM and 2360 nM, respectively. Also, the CC50 at 48 h is more than 25 µM in data set [2] and more than 23.6 µM in data set [3]. The molecule also displayed a CC50 at 4 days in data set [4] of 71.7 µM.

On to `CC(C)OC(=O)[C@H](C)N[P@](=O)(OC[C@@]1(CF)O[C@@H](c2ccc3c(N)ncnn23)[C@H](OC(=O)C(C)C)[C@@H]1OC(=O)C(C)C)Oc1ccccc1` [Example 23, (2R,3S,4S,5S)-5-(4-aminopyrrolo[2,1-f][1,2,4]triazin-7-yl)-2-(fluoromethyl)-2-((((S)-(((S)-1-isopropoxy-1-oxopropan-2-yl)amino)(phenoxy)phosphoryl)oxy)methyl) tetrahydrofuran-3,4-diyl bis(2-methylpropanoate)], for which the EC50 in data set [1] was found to be 387 nM; in data set [5], 1800 nM; in the data set on RSV strain A2, 4320 nM. The CC50 at 48 h in data set [2] is more than 23.2 µM; in data set [3], 10.9 µM. Besides, in data set [4], the CC50 at 4 days turned out to be 26.3 µM.

Usually EC50 stands for the concentration at which the effect is half-maximal. The term CC50 denotes the concentration giving 50% cytotoxicity. Read a high CC50 as better tolerance by the cells.

(Values after patent US12030903B2, “Antiviral compounds” (Gilead Sciences, Inc., priority 2020, dated 2024).)
